Test results from ChEMBL document CHEMBL5723582, “Data for DCP probe T-10430” (2024).

Key:
Details in all cases: Compound concentration 1.0 uM
[1] = molecular target: Trace amine-associated receptor 8 (Homo sapiens) (UniProt Q969N4); assay: RLU of TAAR8 at 1.0 µM in the […] PRESTO-Tango GPCRome screen
[2] = molecular target: Trace amine-associated receptor 6 (Homo sapiens) (UniProt Q96RI8); assay: RLU of TAAR6 at 1.0 µM in the […] PRESTO-Tango GPCRome screen
[3] = molecular target: G-protein coupled receptor 183 (Homo sapiens) (UniProt P32249); assay: RLU of GPR183 at 1.0 µM in the […] PRESTO-Tango GPCRome screen
[4] = molecular target: C-C chemokine receptor type 6 (Homo sapiens) (UniProt P51684); assay: RLU of CCR6 at 1.0 µM in the […] PRESTO-Tango GPCRome screen
Chain of C-C chemokine receptor type 6 (Homo sapiens) (P51684 whole entry): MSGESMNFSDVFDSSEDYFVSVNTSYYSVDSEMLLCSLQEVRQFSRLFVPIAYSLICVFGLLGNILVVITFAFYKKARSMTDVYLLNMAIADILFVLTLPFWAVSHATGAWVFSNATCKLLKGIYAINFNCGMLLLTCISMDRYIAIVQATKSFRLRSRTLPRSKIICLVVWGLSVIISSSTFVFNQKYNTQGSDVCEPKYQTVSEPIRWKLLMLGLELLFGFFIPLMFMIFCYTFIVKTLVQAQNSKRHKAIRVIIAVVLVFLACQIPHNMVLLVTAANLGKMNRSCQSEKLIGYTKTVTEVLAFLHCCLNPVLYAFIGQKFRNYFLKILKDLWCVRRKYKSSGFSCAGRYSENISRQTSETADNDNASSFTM

[5] = molecular target: Cannabinoid receptor 2 (Homo sapiens) (UniProt P34972); assay: RLU of CNR2 at 1.0 µM in the […] PRESTO-Tango GPCRome screen
[6] = molecular target: G-protein coupled receptor 65 (Homo sapiens) (UniProt Q8IYL9); assay: RLU of GPR65 at 1.0 µM in the […] PRESTO-Tango GPCRome screen
Chain of G-protein coupled receptor 65 (Homo sapiens) (Q8IYL9 whole entry): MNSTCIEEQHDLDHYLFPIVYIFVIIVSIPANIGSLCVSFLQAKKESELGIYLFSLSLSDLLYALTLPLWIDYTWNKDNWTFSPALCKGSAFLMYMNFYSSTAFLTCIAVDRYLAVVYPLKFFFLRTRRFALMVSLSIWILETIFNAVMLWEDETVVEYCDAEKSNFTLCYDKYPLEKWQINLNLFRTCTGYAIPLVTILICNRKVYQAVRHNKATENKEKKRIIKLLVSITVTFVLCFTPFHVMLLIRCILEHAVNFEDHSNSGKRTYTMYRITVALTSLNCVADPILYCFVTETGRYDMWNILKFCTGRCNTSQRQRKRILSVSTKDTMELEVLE

[7] = molecular target: Prostaglandin E2 receptor EP1 subtype (Homo sapiens) (UniProt P34995); assay: RLU of PTGER1 at 1.0 µM in the […] PRESTO-Tango GPCRome screen
[8] = molecular target: Proteinase-activated receptor 2 (Homo sapiens) (UniProt P55085); assay: RLU of F2RL1 at 1.0 µM in the […] PRESTO-Tango GPCRome screen
[9] = molecular target: G-protein coupled receptor 61 (Homo sapiens) (UniProt Q9BZJ8); assay: RLU of GPR61 at 1.0 µM in the […] PRESTO-Tango GPCRome screen
[10] = molecular target: Adenosine receptor A2b (Homo sapiens) (UniProt P29275); assay: RLU of ADORA2B at 1.0 µM in the […] PRESTO-Tango GPCRome screen
Chain of Adenosine receptor A2b (Homo sapiens) (P29275 whole entry): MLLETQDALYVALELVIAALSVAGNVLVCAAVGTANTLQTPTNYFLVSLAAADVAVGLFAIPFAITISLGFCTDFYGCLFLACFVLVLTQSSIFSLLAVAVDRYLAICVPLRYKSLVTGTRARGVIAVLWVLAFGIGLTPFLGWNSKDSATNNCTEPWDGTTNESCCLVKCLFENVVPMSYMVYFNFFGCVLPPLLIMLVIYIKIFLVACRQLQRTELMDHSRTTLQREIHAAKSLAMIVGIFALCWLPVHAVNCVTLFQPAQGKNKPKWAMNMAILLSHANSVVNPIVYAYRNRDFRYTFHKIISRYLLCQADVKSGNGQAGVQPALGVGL

[11] = molecular target: G-protein coupled receptor 22 (Homo sapiens) (UniProt Q99680); assay: RLU of GPR22 at 1.0 µM in the […] PRESTO-Tango GPCRome screen
[12] = molecular target: Somatostatin receptor type 5 (Homo sapiens) (UniProt P35346); assay: RLU of SSTR5 at 1.0 µM in the […] PRESTO-Tango GPCRome screen
[13] = molecular target: Probable G-protein coupled receptor 141 (Homo sapiens) (UniProt Q7Z602); assay: RLU of GPR141 at 1.0 µM in the […] PRESTO-Tango GPCRome screen
[14] = molecular target: Calcitonin gene-related peptide type 1 receptor (Homo sapiens) (UniProt Q16602); assay: RLU of CALCRL at 1.0 µM in the […] PRESTO-Tango GPCRome screen
[15] = molecular target: Somatostatin receptor type 3 (Homo sapiens) (UniProt P32745); assay: RLU of SSTR3 at 1.0 µM in the […] PRESTO-Tango GPCRome screen
[16] = molecular target: G-protein coupled receptor 39 (Homo sapiens) (UniProt O43194); assay: RLU of GPR39 at 1.0 µM in the […] PRESTO-Tango GPCRome screen
[17] = molecular target: Adrenocorticotropic hormone receptor (Homo sapiens) (UniProt Q01718); assay: RLU of MC2R at 1.0 µM in the […] PRESTO-Tango GPCRome screen
Chain of Adrenocorticotropic hormone receptor (Homo sapiens) (Q01718 whole entry): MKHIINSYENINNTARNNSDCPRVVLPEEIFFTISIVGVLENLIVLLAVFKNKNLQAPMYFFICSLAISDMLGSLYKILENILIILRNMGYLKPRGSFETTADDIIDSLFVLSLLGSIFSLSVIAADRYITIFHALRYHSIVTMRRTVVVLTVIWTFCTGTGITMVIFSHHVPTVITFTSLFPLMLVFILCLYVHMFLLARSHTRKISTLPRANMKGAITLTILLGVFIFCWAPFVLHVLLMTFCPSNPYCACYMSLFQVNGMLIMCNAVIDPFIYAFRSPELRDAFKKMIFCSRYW

[18] = molecular target: Metabotropic glycine receptor (Homo sapiens) (UniProt Q5T848); assay: RLU of GPR158 at 1.0 µM in the […] PRESTO-Tango GPCRome screen
[19] = molecular target: Adhesion G protein-coupled receptor F5 (Homo sapiens) (UniProt Q8IZF2); assay: RLU of GPR116 at 1.0 µM in the […] PRESTO-Tango GPCRome screen
[20] = molecular target: 2-oxoglutarate receptor 1 (Homo sapiens) (UniProt Q96P68); assay: RLU of OXGR1 at 1.0 µM in the […] PRESTO-Tango GPCRome screen
[21] = molecular target: Galanin receptor type 2 (Homo sapiens) (UniProt O43603); assay: RLU of GAL2 at 1.0 µM in the […] PRESTO-Tango GPCRome screen
[22] = molecular target: Probable G-protein coupled receptor 149 (Homo sapiens) (UniProt Q86SP6); assay: RLU of GPR149 at 1.0 µM in the […] PRESTO-Tango GPCRome screen
Chain of Probable G-protein coupled receptor 149 (Homo sapiens) (Q86SP6 whole entry): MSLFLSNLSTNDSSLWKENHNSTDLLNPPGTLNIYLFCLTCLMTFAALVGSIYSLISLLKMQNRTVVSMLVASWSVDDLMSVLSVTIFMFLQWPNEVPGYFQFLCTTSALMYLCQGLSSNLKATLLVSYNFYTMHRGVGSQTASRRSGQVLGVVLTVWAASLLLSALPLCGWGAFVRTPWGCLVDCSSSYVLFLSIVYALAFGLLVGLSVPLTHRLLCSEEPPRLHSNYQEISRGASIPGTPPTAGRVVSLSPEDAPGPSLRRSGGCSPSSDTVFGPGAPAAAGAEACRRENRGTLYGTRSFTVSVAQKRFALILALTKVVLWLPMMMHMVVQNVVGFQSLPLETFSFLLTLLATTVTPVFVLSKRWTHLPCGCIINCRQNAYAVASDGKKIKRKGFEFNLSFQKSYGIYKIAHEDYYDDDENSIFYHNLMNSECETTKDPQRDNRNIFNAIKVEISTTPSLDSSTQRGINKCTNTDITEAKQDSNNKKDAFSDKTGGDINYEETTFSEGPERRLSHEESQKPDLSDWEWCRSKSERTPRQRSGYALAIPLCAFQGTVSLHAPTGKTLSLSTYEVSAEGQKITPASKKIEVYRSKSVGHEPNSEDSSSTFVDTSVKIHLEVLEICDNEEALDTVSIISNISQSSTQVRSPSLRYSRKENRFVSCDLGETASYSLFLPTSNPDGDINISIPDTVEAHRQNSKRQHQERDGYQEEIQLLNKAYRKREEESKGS

[23] = molecular target: Neuropeptide Y receptor type 4 (Homo sapiens) (UniProt P50391); assay: RLU of NPY4R at 1.0 µM in the […] PRESTO-Tango GPCRome screen
Chain of Neuropeptide Y receptor type 4 (Homo sapiens) (P50391 whole entry): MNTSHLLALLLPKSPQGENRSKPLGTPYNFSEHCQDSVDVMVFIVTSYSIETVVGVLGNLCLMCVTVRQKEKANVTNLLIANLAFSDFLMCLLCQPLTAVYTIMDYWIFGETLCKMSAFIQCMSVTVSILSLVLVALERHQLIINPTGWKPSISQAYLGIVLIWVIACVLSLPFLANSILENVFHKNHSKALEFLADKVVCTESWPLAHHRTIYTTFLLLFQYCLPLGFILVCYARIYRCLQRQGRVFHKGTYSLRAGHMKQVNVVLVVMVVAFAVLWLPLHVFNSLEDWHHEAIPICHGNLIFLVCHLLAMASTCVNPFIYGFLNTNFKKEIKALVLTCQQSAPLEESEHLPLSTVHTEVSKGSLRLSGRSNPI

[24] = molecular target: fMet-Leu-Phe receptor (Homo sapiens) (UniProt P21462); assay: RLU of FPR1 at 1.0 µM in the […] PRESTO-Tango GPCRome screen
Chain of fMet-Leu-Phe receptor (Homo sapiens) (P21462 whole entry): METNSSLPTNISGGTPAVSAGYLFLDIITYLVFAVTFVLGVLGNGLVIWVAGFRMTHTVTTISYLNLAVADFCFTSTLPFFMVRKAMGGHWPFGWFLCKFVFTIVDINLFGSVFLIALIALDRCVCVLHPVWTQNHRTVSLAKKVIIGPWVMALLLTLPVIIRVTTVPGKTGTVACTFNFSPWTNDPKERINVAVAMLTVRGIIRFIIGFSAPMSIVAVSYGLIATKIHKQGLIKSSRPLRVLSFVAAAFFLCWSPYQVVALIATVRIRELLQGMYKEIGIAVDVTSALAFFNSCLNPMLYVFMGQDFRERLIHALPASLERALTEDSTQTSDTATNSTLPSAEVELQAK

[25] = molecular target: Urotensin-2 receptor (Homo sapiens) (UniProt Q9UKP6); assay: RLU of UTS2R at 1.0 µM in the […] PRESTO-Tango GPCRome screen
[26] = molecular target: Neuropeptide Y receptor type 2 (Homo sapiens) (UniProt P49146); assay: RLU of NPY2R at 1.0 µM in the […] PRESTO-Tango GPCRome screen
[27] = molecular target: G-protein coupled estrogen receptor 1 (Homo sapiens) (UniProt Q99527); assay: RLU of GPER at 1.0 µM in the […] PRESTO-Tango GPCRome screen
Chain of G-protein coupled estrogen receptor 1 (Homo sapiens) (Q99527 whole entry): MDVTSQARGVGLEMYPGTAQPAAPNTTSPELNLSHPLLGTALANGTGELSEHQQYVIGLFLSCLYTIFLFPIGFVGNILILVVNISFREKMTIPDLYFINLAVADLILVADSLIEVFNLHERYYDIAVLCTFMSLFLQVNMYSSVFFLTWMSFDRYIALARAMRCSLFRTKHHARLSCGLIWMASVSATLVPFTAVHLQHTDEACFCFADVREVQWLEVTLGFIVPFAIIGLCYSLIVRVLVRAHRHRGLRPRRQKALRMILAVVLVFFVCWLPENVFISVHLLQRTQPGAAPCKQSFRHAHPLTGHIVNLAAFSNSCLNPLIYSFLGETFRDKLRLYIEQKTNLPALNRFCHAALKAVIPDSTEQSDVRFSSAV

[28] = system: Pyroglutamylated RFamide peptide receptor (Homo sapiens); assay: RLU of QRFP at 1.0 µM in the […] PRESTO-Tango GPCRome screen
[29] = molecular target: Lysophosphatidic acid receptor 5 (Homo sapiens) (UniProt Q9H1C0); assay: RLU of LPAR5 at 1.0 µM in the […] PRESTO-Tango GPCRome screen
[30] = molecular target: Glucagon-like peptide 2 receptor (Homo sapiens) (UniProt O95838); assay: RLU of GLP2R at 1.0 µM in the […] PRESTO-Tango GPCRome screen
[31] = molecular target: Mas-related G-protein coupled receptor member X3 (Homo sapiens) (UniProt Q96LB0); assay: RLU of MRGPRX3 at 1.0 µM in the […] PRESTO-Tango GPCRome screen
[32] = molecular target: Opsin-3 (Homo sapiens) (UniProt Q9H1Y3); assay: RLU of OPN3 at 1.0 µM in the […] PRESTO-Tango GPCRome screen
[33] = molecular target: Neuromedin-U receptor 2 (Homo sapiens) (UniProt Q9GZQ4); assay: RLU of NMUR2 at 1.0 µM in the […] PRESTO-Tango GPCRome screen
Chain of Neuromedin-U receptor 2 (Homo sapiens) (Q9GZQ4 whole entry): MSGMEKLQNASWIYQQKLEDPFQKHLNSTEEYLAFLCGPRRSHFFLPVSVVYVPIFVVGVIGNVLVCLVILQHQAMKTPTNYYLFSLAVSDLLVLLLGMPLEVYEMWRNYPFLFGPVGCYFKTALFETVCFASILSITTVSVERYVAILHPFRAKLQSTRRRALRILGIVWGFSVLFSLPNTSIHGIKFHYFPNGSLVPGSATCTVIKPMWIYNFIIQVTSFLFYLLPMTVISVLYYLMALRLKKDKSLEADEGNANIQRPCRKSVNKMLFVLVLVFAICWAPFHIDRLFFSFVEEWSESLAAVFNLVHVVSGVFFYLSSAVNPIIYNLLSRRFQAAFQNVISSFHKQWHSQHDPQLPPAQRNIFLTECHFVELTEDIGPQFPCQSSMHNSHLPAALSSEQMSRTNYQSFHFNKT

[34] = molecular target: Retinoic acid-induced protein 3 (Homo sapiens) (UniProt Q8NFJ5); assay: RLU of GPRC5A at 1.0 µM in the […] PRESTO-Tango GPCRome screen
Chain of Retinoic acid-induced protein 3 (Homo sapiens) (Q8NFJ5 whole entry): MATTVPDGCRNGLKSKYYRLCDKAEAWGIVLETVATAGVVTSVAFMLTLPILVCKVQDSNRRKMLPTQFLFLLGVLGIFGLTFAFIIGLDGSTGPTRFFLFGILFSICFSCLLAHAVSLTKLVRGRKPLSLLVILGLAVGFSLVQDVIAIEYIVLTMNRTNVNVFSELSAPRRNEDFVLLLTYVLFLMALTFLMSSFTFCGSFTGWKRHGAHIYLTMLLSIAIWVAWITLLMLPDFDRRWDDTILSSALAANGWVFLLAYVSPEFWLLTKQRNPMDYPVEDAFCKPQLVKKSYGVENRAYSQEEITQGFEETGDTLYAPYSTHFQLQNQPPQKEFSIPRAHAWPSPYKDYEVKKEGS

[35] = molecular target: Neuromedin-K receptor (Homo sapiens) (UniProt P29371); assay: RLU of TACR3 at 1.0 µM in the […] PRESTO-Tango GPCRome screen
Chain of Neuromedin-K receptor (Homo sapiens) (P29371 whole entry): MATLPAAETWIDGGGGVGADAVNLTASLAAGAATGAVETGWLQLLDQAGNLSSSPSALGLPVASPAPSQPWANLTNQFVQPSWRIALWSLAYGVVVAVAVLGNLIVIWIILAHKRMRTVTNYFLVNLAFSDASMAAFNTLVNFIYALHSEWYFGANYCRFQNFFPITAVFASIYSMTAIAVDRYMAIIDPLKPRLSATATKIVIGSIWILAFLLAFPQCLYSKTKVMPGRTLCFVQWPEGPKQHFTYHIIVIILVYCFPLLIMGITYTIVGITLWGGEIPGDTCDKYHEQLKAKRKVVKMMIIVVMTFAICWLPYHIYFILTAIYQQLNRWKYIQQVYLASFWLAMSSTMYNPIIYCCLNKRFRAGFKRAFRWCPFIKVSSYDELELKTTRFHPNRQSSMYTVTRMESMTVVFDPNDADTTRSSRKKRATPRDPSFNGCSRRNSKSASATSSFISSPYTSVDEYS

Chain of Trace amine-associated receptor 8 (Homo sapiens) (Q969N4 whole entry): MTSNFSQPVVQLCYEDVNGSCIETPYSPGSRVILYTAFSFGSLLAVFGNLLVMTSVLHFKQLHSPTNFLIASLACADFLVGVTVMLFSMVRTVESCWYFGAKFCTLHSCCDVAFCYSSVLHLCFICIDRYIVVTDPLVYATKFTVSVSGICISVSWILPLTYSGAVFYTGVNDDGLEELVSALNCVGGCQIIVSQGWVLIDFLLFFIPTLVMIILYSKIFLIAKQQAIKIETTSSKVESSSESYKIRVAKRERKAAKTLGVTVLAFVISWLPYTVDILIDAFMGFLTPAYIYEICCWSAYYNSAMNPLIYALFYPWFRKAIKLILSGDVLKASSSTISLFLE

RLU [1]: -4860
RLU [2]: -394
RLU [3]: -6100
RLU [4]: -2060
RLU [5]: 4360
RLU [6]: -1350
RLU [7]: -390
RLU [8]: -1270
RLU [9]: 1400
RLU [10]: 6490
RLU [11]: -1210
RLU [12]: -946
RLU [13]: 2790
RLU [14]: 2370
RLU [15]: 342
RLU [16]: 8020
RLU [17]: 1070
RLU [18]: 1540
RLU [19]: -663
RLU [20]: -826
RLU [21]: 1140
RLU [22]: -2140
RLU [23]: -158
RLU [24]: 3270
RLU [25]: -160
RLU [26]: 559
RLU [27]: -607
RLU [28]: -577
RLU [29]: 471
RLU [30]: -2690
RLU [31]: -916
RLU [32]: 338
RLU [33]: 710
RLU [34]: 3570
RLU [35]: 550
SMILES: CCCCC(=O)N1CC2(C1)CN(c1ccccc1-c1nnn[nH]1)C2
